Measurements from the NIST ThermoML archive (doi:10.1016/j.fluid.2017.09.014).
Numbers after ± are expanded uncertainties.

Experiment: xn = mol fraction of the nth substance listed
Details: Vibrating tube method

O=S=O [sulfur dioxide] + O=C=O
mass density (283.32 K, 5506 kPa, Liquid, x2 = 0.9503): 916.4 ± 1.2 kg/m3
mass density (283.32 K, 6002 kPa, Liquid, x2 = 0.9503): 920.8 ± 1 kg/m3
mass density (283.32 K, 6507 kPa, Liquid, x2 = 0.9503): 925.6 ± 1 kg/m3
mass density (283.32 K, 7000 kPa, Liquid, x2 = 0.9503): 929.5 ± 1 kg/m3
mass density (283.32 K, 7506 kPa, Liquid, x2 = 0.9503): 934.7 ± 1 kg/m3
mass density (283.32 K, 8008 kPa, Liquid, x2 = 0.9503): 938.7 ± 1 kg/m3
mass density (283.32 K, 9510 kPa, Liquid, x2 = 0.9503): 949.7 ± 0.8 kg/m3
mass density (283.32 K, 9995 kPa, Liquid, x2 = 0.9503): 953.3 ± 0.8 kg/m3
mass density (283.32 K, 10507 kPa, Liquid, x2 = 0.9503): 956.6 ± 0.8 kg/m3
mass density (283.32 K, 11007 kPa, Liquid, x2 = 0.9503): 959.9 ± 0.8 kg/m3
mass density (283.32 K, 12009 kPa, Liquid, x2 = 0.9503): 966.2 ± 0.8 kg/m3
mass density (283.32 K, 12514 kPa, Liquid, x2 = 0.9503): 969.7 ± 0.8 kg/m3
mass density (283.32 K, 13000 kPa, Liquid, x2 = 0.9503): 972.6 ± 0.8 kg/m3
mass density (283.32 K, 13536 kPa, Liquid, x2 = 0.9503): 975.3 ± 0.8 kg/m3
mass density (283.32 K, 14496 kPa, Liquid, x2 = 0.9503): 980.8 ± 0.8 kg/m3
mass density (283.32 K, 15011 kPa, Liquid, x2 = 0.9503): 984.1 ± 0.6 kg/m3
mass density (283.32 K, 15505 kPa, Liquid, x2 = 0.9503): 986.8 ± 0.8 kg/m3
mass density (283.32 K, 16044 kPa, Liquid, x2 = 0.9503): 989.5 ± 0.6 kg/m3
mass density (283.32 K, 16561 kPa, Liquid, x2 = 0.9503): 992.4 ± 0.6 kg/m3
mass density (283.32 K, 17047 kPa, Liquid, x2 = 0.9503): 994.7 ± 0.6 kg/m3
mass density (283.32 K, 17551 kPa, Liquid, x2 = 0.9503): 996.8 ± 0.6 kg/m3
mass density (283.32 K, 18520 kPa, Liquid, x2 = 0.9503): 1001.7 ± 0.6 kg/m3
mass density (283.32 K, 19016 kPa, Liquid, x2 = 0.9503): 1004.1 ± 0.6 kg/m3
mass density (283.32 K, 19496 kPa, Liquid, x2 = 0.9503): 1006.2 ± 0.6 kg/m3
mass density (283.32 K, 20038 kPa, Liquid, x2 = 0.9503): 1008.7 ± 0.6 kg/m3
mass density (283.32 K, 20507 kPa, Liquid, x2 = 0.9503): 1011 ± 0.6 kg/m3
mass density (283.32 K, 21035 kPa, Liquid, x2 = 0.9503): 1013.2 ± 0.4 kg/m3
mass density (283.32 K, 21504 kPa, Liquid, x2 = 0.9503): 1015.3 ± 0.6 kg/m3
mass density (283.32 K, 22046 kPa, Liquid, x2 = 0.9503): 1017.6 ± 0.4 kg/m3
mass density (283.32 K, 22565 kPa, Liquid, x2 = 0.9503): 1019.8 ± 0.6 kg/m3
mass density (283.32 K, 23052 kPa, Liquid, x2 = 0.9503): 1021.8 ± 0.6 kg/m3
mass density (283.32 K, 23509 kPa, Liquid, x2 = 0.9503): 1023.3 ± 0.4 kg/m3
mass density (283.32 K, 24535 kPa, Liquid, x2 = 0.9503): 1027.4 ± 0.6 kg/m3
mass density (283.32 K, 25025 kPa, Liquid, x2 = 0.9503): 1029.4 ± 0.6 kg/m3
mass density (283.32 K, 25509 kPa, Liquid, x2 = 0.9503): 1031.3 ± 0.6 kg/m3
mass density (283.32 K, 26038 kPa, Liquid, x2 = 0.9503): 1033.5 ± 0.4 kg/m3
mass density (283.32 K, 26503 kPa, Liquid, x2 = 0.9503): 1034.9 ± 0.6 kg/m3
mass density (283.32 K, 27023 kPa, Liquid, x2 = 0.9503): 1037 ± 0.4 kg/m3
mass density (283.32 K, 28043 kPa, Liquid, x2 = 0.9503): 1040.7 ± 0.4 kg/m3
mass density (283.32 K, 28527 kPa, Liquid, x2 = 0.9503): 1042.4 ± 0.4 kg/m3
mass density (283.32 K, 29081 kPa, Liquid, x2 = 0.9503): 1044.1 ± 0.6 kg/m3
mass density (283.32 K, 29470 kPa, Liquid, x2 = 0.9503): 1045.7 ± 0.4 kg/m3
mass density (283.32 K, 30008 kPa, Liquid, x2 = 0.9503): 1047.3 ± 0.6 kg/m3
mass density (283.32 K, 30506 kPa, Liquid, x2 = 0.9503): 1049.6 ± 0.6 kg/m3
mass density (283.32 K, 31007 kPa, Liquid, x2 = 0.9503): 1050.9 ± 0.6 kg/m3
mass density (283.32 K, 31500 kPa, Liquid, x2 = 0.9503): 1052.8 ± 0.4 kg/m3
mass density (283.32 K, 32033 kPa, Liquid, x2 = 0.9503): 1054.6 ± 0.6 kg/m3
mass density (283.32 K, 32516 kPa, Liquid, x2 = 0.9503): 1056.2 ± 0.4 kg/m3
mass density (283.32 K, 33032 kPa, Liquid, x2 = 0.9503): 1057.9 ± 0.4 kg/m3
mass density (283.32 K, 33527 kPa, Liquid, x2 = 0.9503): 1059.6 ± 0.4 kg/m3
mass density (283.32 K, 33995 kPa, Liquid, x2 = 0.9503): 1060.8 ± 0.4 kg/m3
mass density (283.32 K, 34989 kPa, Liquid, x2 = 0.9503): 1064.3 ± 0.4 kg/m3
mass density (283.32 K, 37026 kPa, Liquid, x2 = 0.9503): 1070.5 ± 0.4 kg/m3
mass density (283.32 K, 38461 kPa, Liquid, x2 = 0.9503): 1074.6 ± 0.4 kg/m3
mass density (283.32 K, 39056 kPa, Liquid, x2 = 0.9503): 1076.1 ± 0.5 kg/m3
mass density (283.32 K, 39558 kPa, Liquid, x2 = 0.9503): 1077.4 ± 0.5 kg/m3
mass density (283.32 K, 40729 kPa, Liquid, x2 = 0.9503): 1080.4 ± 0.5 kg/m3
mass density (283.33 K, 4307 kPa, Liquid, x2 = 0.9503): 902.3 ± 1.2 kg/m3
mass density (283.33 K, 4499 kPa, Liquid, x2 = 0.9503): 904.4 ± 1.2 kg/m3
mass density (283.33 K, 8543 kPa, Liquid, x2 = 0.9503): 942.8 ± 1 kg/m3
mass density (283.33 K, 9019 kPa, Liquid, x2 = 0.9503): 946.2 ± 0.8 kg/m3
mass density (283.33 K, 11512 kPa, Liquid, x2 = 0.9503): 963 ± 0.8 kg/m3
mass density (283.33 K, 14003 kPa, Liquid, x2 = 0.9503): 978.2 ± 0.8 kg/m3
mass density (283.33 K, 18078 kPa, Liquid, x2 = 0.9503): 999.5 ± 0.6 kg/m3
mass density (283.33 K, 24074 kPa, Liquid, x2 = 0.9503): 1025.3 ± 0.4 kg/m3
mass density (283.33 K, 40145 kPa, Liquid, x2 = 0.9503): 1078.8 ± 0.5 kg/m3
mass density (283.33 K, 40601 kPa, Liquid, x2 = 0.9503): 1080.3 ± 0.5 kg/m3
mass density (283.33 K, 40700 kPa, Liquid, x2 = 0.9503): 1080.6 ± 0.5 kg/m3
mass density (297.4 K, 4803 kPa, Gas, x2 = 0.9478): 134.4 ± 1.2 kg/m3
mass density (297.41 K, 100 kPa, Gas, x2 = 0.9478): 1.8 ± 0.2 kg/m3
mass density (297.41 K, 200 kPa, Gas, x2 = 0.9478): 3.6 ± 0.2 kg/m3
mass density (297.41 K, 2012 kPa, Gas, x2 = 0.9478): 42.1 ± 0.2 kg/m3
mass density (297.41 K, 2215 kPa, Gas, x2 = 0.9478): 47.2 ± 0.2 kg/m3
mass density (297.42 K, 51 kPa, Gas, x2 = 0.9478): 1 ± 0.1 kg/m3
mass density (297.42 K, 397 kPa, Gas, x2 = 0.9478): 7.5 ± 0.2 kg/m3
mass density (297.42 K, 502 kPa, Gas, x2 = 0.9478): 9.4 ± 0.2 kg/m3
mass density (297.42 K, 1817 kPa, Gas, x2 = 0.9478): 37.6 ± 0.2 kg/m3
mass density (297.42 K, 2421 kPa, Gas, x2 = 0.9478): 53 ± 0.2 kg/m3
mass density (297.42 K, 2588 kPa, Gas, x2 = 0.9478): 57 ± 0.2 kg/m3
mass density (297.42 K, 2854 kPa, Gas, x2 = 0.9478): 64.1 ± 0.4 kg/m3
mass density (297.42 K, 3638 kPa, Gas, x2 = 0.9478): 87.4 ± 0.4 kg/m3
mass density (297.42 K, 3822 kPa, Gas, x2 = 0.9478): 93.7 ± 0.4 kg/m3
mass density (297.42 K, 3996 kPa, Gas, x2 = 0.9478): 99.9 ± 0.4 kg/m3
mass density (297.42 K, 4401 kPa, Gas, x2 = 0.9478): 115.6 ± 0.6 kg/m3
mass density (297.42 K, 4507 kPa, Gas, x2 = 0.9478): 120.1 ± 0.6 kg/m3
mass density (297.42 K, 4600 kPa, Gas, x2 = 0.9478): 124.4 ± 0.6 kg/m3
mass density (297.42 K, 4703 kPa, Gas, x2 = 0.9478): 129.2 ± 0.6 kg/m3
mass density (297.43 K, 3223 kPa, Gas, x2 = 0.9478): 74.6 ± 0.4 kg/m3
mass density (297.43 K, 3396 kPa, Gas, x2 = 0.9478): 79.8 ± 0.4 kg/m3
mass density (297.43 K, 4206 kPa, Gas, x2 = 0.9478): 107.7 ± 0.4 kg/m3
mass density (297.44 K, 3064 kPa, Gas, x2 = 0.9478): 70.1 ± 0.4 kg/m3
mass density (298.09 K, 26076 kPa, Liquid, x2 = 0.9478): 980 ± 0.6 kg/m3
mass density (298.09 K, 26503 kPa, Liquid, x2 = 0.9478): 982.1 ± 0.6 kg/m3
mass density (298.1 K, 7001 kPa, Liquid, x2 = 0.9478): 819.7 ± 1.8 kg/m3
mass density (298.1 K, 9007 kPa, Liquid, x2 = 0.9478): 854 ± 1.4 kg/m3
mass density (298.1 K, 21016 kPa, Liquid, x2 = 0.9478): 954.5 ± 0.8 kg/m3
mass density (298.1 K, 21994 kPa, Liquid, x2 = 0.9478): 959.8 ± 0.6 kg/m3
mass density (298.1 K, 22537 kPa, Liquid, x2 = 0.9478): 962.6 ± 0.6 kg/m3
mass density (298.1 K, 23522 kPa, Liquid, x2 = 0.9478): 967.7 ± 0.6 kg/m3
mass density (298.1 K, 24029 kPa, Liquid, x2 = 0.9478): 970.2 ± 0.6 kg/m3
mass density (298.1 K, 24505 kPa, Liquid, x2 = 0.9478): 972.6 ± 0.6 kg/m3
mass density (298.1 K, 25050 kPa, Liquid, x2 = 0.9478): 975.1 ± 0.6 kg/m3
mass density (298.1 K, 25593 kPa, Liquid, x2 = 0.9478): 977.9 ± 0.6 kg/m3
mass density (298.1 K, 27025 kPa, Liquid, x2 = 0.9478): 984.3 ± 0.6 kg/m3
mass density (298.1 K, 27508 kPa, Liquid, x2 = 0.9478): 986.6 ± 0.6 kg/m3
mass density (298.1 K, 27973 kPa, Liquid, x2 = 0.9478): 988.6 ± 0.6 kg/m3
mass density (298.1 K, 28400 kPa, Liquid, x2 = 0.9478): 990.6 ± 0.6 kg/m3
mass density (298.1 K, 32016 kPa, Liquid, x2 = 0.9478): 1004.6 ± 0.4 kg/m3
mass density (298.1 K, 32518 kPa, Liquid, x2 = 0.9478): 1006.5 ± 0.4 kg/m3
mass density (298.1 K, 33068 kPa, Liquid, x2 = 0.9478): 1008.6 ± 0.4 kg/m3
mass density (298.1 K, 33435 kPa, Liquid, x2 = 0.9478): 1009.8 ± 0.6 kg/m3
